Values quoted from earlier work as cited in patent US12565477B2, “Preparation method for chlorinated compound” (JIANGSU KANION PHARMACEUTICAL CO., LTD., priority 2020, dated 2026).
Entries after “also recorded” stand apart in the source; their conditions may differ. Where two headings read alike, the source gives them in different places.

What was measured:
[1] = human; for Percentage of administered dose: 0-144 h, after Lesinurad; for Metabolites found in humans after Lesinurad administration (in words): clinical data
[2] = Liver microsome, Monkey, in vitro
[3] = Hepatocyte, Rat, in vitro
[4] = Hepatocyte, Dog, in vitro
URAT1 = biological target: T1, URAT1 (Homo sapiens, UniProt Q96S37)
T1 construct: URAT1 is an important kidney anion transporter located on the brush border membrane of epithelial cells of renal tubules; host or cells: kidney of treated patients (endogenous)
T1 sequence (Q96S37 1-553): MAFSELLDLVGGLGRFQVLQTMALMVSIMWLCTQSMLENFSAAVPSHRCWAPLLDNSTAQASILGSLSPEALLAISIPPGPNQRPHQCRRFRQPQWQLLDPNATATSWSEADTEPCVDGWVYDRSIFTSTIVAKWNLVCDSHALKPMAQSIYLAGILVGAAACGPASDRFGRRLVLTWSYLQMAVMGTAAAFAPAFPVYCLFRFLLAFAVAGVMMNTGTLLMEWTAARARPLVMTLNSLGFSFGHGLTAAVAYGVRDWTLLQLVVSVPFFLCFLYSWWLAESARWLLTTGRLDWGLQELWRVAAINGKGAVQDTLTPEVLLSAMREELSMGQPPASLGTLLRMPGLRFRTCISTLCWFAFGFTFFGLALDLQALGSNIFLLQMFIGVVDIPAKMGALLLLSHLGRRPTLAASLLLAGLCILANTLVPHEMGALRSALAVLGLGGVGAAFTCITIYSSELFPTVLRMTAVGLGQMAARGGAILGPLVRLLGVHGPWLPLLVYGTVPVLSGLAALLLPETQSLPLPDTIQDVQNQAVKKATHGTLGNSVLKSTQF

[5] = Hepatocyte, Human, in vitro
[6] = Liver microsome, Rat, in vitro
[7] = Liver microsome, Human, in vitro
[8] = Liver microsome, Dog, in vitro
[9] = Hepatocyte, Monkey, in vitro

Structure (SMILES) | Percentage of administered dose ([1]; Feces) [%] | Share of M3, M4 and Lesinurad detected (Total 100) [2] [%] | Share of M3, M4 and Lesinurad detected (Total 100) [3] | Share of M3, M4 and Lesinurad detected (Total 100) [4] | Percentage of administered dose ([1]; Urine) [%] | Metabolites found in humans after Lesinurad administration (in words) [1] | Additional effect of combined medication versus xanthine oxidase inhibitor alone (URAT1; Lesinurad 200 mg/day with XOI) | Toxic side effects (kidney-related adverse events, especially kidney stone) (URAT1; Lesinurad 400 mg/day) | Additional effect of combined medication (URAT1; Lesinurad 400 mg/day (high dose) with XOI) | Share of M3, M4 and Lesinurad detected (Total 100) [5] [%] | Share of M3, M4 and Lesinurad detected (Total 100) [6] [%] | Share of M3, M4 and Lesinurad detected (Total 100) [7] [%] | Share of M3, M4 and Lesinurad detected (Total 100) [8] [%] | Share of M3, M4 and Lesinurad detected (Total 100) [9] [%]
O=C(O)CSc1nncn1-c1ccc(C2(O)CC2)c2ccccc12 [Compound M5] | 3.6 | – | – | – | – | – | – | – | – | – | – | – | – | –
O=C(O)CSc1nnc(Br)n1-c1ccc(C2(O)CC2)c2ccccc12 [Compound M3] | 0.3 | 7.9 | not detected | not detected | 12.0 | most predominant metabolites | – | – | – | – | – | – | – | –
O=C(O)CSc1nnc(Br)n1-c1ccc(C2CC2)c2ccccc12 [Lesinurad] | 1.5 | 92.1 | 100% | 100% | 31.3 | – | not very significant | significantly increased toxic side effects | higher additional effect | 92.1 | 100 | 100 | 100 | 98.1
O=C(O)CSc1nncn1-c1ccc(C2CC2)c2ccccc12 [Compound M2] | 4.8 | – | – | – | 0.3 | – | – | – | – | – | – | – | – | –
O=C(O)CSc1nnc(Br)n1-c1ccc(C2CC2)c2c1C=CC(O)C2O (stereo not drawn) [Compound M4] | 5.0 | – | not detected | not detected | 15.7 | specifically detected in human metabolites; also recorded: most predominant metabolites | – | – | – | – | – | – | – | –
